From patent publication US20040092566A1, “Celecoxib prodrug” (priority 2002, published 2004)

Legend:
COX-1 = COX-1 (Homo sapiens, UniProt P23219); settings: background statement; cited from earlier work
Chain of COX-1 (P23219 24-599): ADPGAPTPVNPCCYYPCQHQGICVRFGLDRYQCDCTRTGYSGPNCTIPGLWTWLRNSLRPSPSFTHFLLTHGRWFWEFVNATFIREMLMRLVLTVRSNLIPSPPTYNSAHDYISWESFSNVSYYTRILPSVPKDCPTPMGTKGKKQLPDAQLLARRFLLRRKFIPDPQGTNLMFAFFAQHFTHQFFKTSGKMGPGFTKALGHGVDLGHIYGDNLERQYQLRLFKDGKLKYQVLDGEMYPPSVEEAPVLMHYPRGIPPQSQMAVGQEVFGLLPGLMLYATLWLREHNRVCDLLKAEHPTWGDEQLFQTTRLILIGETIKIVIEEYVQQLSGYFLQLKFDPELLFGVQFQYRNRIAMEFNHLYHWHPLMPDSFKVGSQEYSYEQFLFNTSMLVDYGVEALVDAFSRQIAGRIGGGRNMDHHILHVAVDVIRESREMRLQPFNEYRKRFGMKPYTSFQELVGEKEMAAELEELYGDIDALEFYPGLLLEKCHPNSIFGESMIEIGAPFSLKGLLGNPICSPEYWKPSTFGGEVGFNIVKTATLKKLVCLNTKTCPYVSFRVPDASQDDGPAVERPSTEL

Row | melting point | SMILES | in vitro inhibitory activity against COX-1 (COX-1)
1 | – | CCC(=O)NS(=O)(=O)c1ccc(-c2c(-c3ccccc3)noc2C)cc1 [Parecoxib] | weak
2 | – | Cc1onc(-c2ccccc2)c1-c1ccc(S(N)(=O)=O)cc1 [valdecoxib] | weak
3 | > 300 °C | CCC(=O)[N-]S(=O)(=O)c1ccc(-n2nc(C(F)(F)F)cc2-c2ccc(C)cc2)cc1.[Na+] [compound Z, 4-[5-(4-methylphenyl)-3-(trifluoromethyl)-1H-pyrazol-1-yl]-N-propionylbenzenesulfonamide, sodium salt] | –
4 | 88.3 to 96.7 °C | CCC(=O)NS(=O)(=O)c1ccc(-n2nc(C(F)(F)F)cc2-c2ccc(C)cc2)cc1 [compound (V), N-[[4-[5-(4-methylphenyl)-3-(trifluoromethyl)-1H-pyrazol-1-yl]phenyl]-sulfonyl]propanamide] | –
